Read-outs that look alike come from different tables or passages of the source.
Tests used:
[1] = system: HepG2; experiment: Proliferation inhibition, HepG2 cell line; type: cell-based; conditions: Homo sapiens; HepG2 cells, 96 hours culture, cell viability detection; read-out: Antiproliferative IC50 HepG2
Summary of the method: (§1)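 Wnt-dependent proliferation in HepG2 and NCI-H929 cells, seeded at 4000 cells/well and pre-incubated 20-24 h at 37 °C. Cells were then exposed for 96 h to 3-fold serial dilutions (top final concentration 20 uM), and viability was read by signal intensity. IC50 was referenced to DMSO-only wells and cell-free wells.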

[2] = system: Colo205; experiment: Proliferation inhibition, Wnt mutant cell line Colo205; type: cell-based; conditions: Colo205, Wnt pathway-dependent, 96 hours, read-out: Antiproliferative IC50 Colo205
Summary of the method: (§2)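 1000 cells/well, 37° C/5% CO2, 20-24 h attach; 3-fold serial dilution, max final 20 uM; 96 h exposure. Promega viability readout, full wavelength mode. DMSO wells = positive ctrl, no-cell wells = negative ctrl; IC50 reported.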

[3] = system: RKO; experiment: Proliferation inhibition, non-Wnt mutant control cell line RKO; type: cell-based; conditions: Wnt-independent control cell line, 96 hours, read-out: Antiproliferative IC50 RKO
Summary of the method: as §2

[4] = system: NCI-H929; experiment: Proliferation inhibition, NCI-H929 cell line; type: cell-based, human; conditions: NCI-H929 cells, 96 hours culture, cell viability detection, read-out: Antiproliferative IC50 NCI-H929
Summary of the method: as §1

[5] = system: DU4475; experiment: Proliferation inhibition, Wnt mutant cell line DU4475; type: cell-based; conditions: DU4475, Wnt pathway-dependent, 96 hours, read-out: Antiproliferative IC50 DU4475
Summary of the method: as §2

[6] = system: Colo205-LUC-TCF/LEF M1 reporter cell line (Wnt pathway); experiment: Colo205-LUC-TCF/LEF M1 reporter gene (luciferase) inhibition; type: cell-based; conditions: 4 hours incubation, luciferase readout
Summary of the method: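 Luminescent readout of TCF/LEF-regulated luciferase after a 4 h, 37° C compound exposure in a stable Colo205 reporter clone (10,000 cells/well). Serial 3-fold dilutions started at 20 uM; IC50 derived using DMSO-treated cells and no-cell wells as controls.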

[7] = system: Hela; experiment: Proliferation inhibition, non-Wnt mutant control cell line Hela; type: cell-based; conditions: Wnt-independent control cell line, 96 hours, read-out: Antiproliferative IC50 Hela
Description: The cell lines used in the experiment are Colo205 and DU4475 cell lines whose Wnt pathway is continuously activated and whose proliferation is Wnt pathway-dependent; while the BELA and RKO cell lines, whose Wnt pathway is not activated under normal circumstances and the proliferation is independent of Wnt pathway, as control cell lines. It is Judged that the inhibitory effect of the compound of the present invention on Wnt-dependent proliferation is not caused by other non-specific toxicity.
Treat the Colo205, Du4475, HELA and RKO cell lines cultured in their respective mediums in the logarithmic growth phase, collect the cells and prepare a uniform cell suspension of known concentration, and then add it to the 96-well cell culture plate Cell suspension, so that each well contains 1000 cells. Put it into a 5% CO2 incubator and incubate at 37° C. for 20-24 h. On the second day, the fully dissolved, 3-fold serially diluted compound was added to each cell culture well, so that the final maximum concentration in the cell culture well was 20 uM, and the culture was continued for 96 hours. In this test, Promega's cell viability detection test is used for detection. The more the cells proliferate, the stronger the final signal intensity will be. The detection instrument is SpectraMax, full wavelength mode. The wells only added with DMSO were used as positive control wells, and the wells that were not inoculated with cells were used as negative control wells. […] The IC50 value of cell proliferation inhibition was used to evaluate the inhibitory effect of the compound on the Wnt pathway and the toxic effect on normal cells (Table 2).

[8] = system: human myeloma cell NCI-H929 SCID xenograft; experiment: Tumor growth inhibition, NCI-H929 mouse xenograft model; type: in vivo; conditions: 30 mg/kg, PO, QD x 21
Description: In this study, human myeloma cell NCI-H929 SCID xenograft model was used to evaluate the anti-tumor activity of compound 11 in vivo.
Female SCID were subcutaneously inoculated with human myeloma cells NCI-H929 to establish the NCI-H929 SCID xenograft model. After the tumor grew to an average tumor volume of about 80 mm^3, the tumor-bearing mice were randomly divided into two groups according to the tumor volume: the solvent-treated control group and the 30 mg/kg compound 11 group. Compound 11 was administered orally, once a day, and the administration cycle was 21 days. The tumor volume was measured every other day, and the body weight and tumor volume were measured on Day 21 (Table 4 and FIG. 1).

Compound | IC50 [1] [nM] | IC50 ([2]; Homo sapiens, COLO 205) [nM] | IC50 ([3]; Homo sapiens) [nM] | IC50 ([4]; Homo sapiens) [nM] | IC50 ([5]; Homo sapiens, DU-4475) [nM] | IC50 [6] [nM] | IC50 ([7]; Homo sapiens) [nM] | IC50 [2] [nM] | % T/CRTV Day 21 [8] [%] | % TGITW Day 21 [8] [%] | % TGItv Day 21 [8] [%] | RTV Day 21 [8] | Tumor weight Day 21 [8] [g] | IC50 [3] [nM] | IC50 [4] [nM] | IC50 [5] [nM] | IC50 [7] [nM]
CO[C@H](C)[C@H]1C(=O)N2CCCc3nc(NCc4ccc(Oc5ccc(C(F)(F)F)nc5)nc4)nc(c32)N1C [114 (W243), (S)-5-((R)-1-methoxyethyl)-4-methyl-2-(((6-((6-(trifluoromethyl)pyridin-3-yl)oxo)pyridin-3-yl)methyl)amino)-4,5,9,10-tetrahydro-6H,8H-pyrido[3,2,1-de]pteridin-6-one] | 37 | 23 | > 10000 | 60 | 20 | 27 | > 10000 | – | – | – | – | – | – | – | – | – | –
CC(C)[C@H]1C(=O)N2CCCc3nc(NCc4ccc(Oc5ccc(C(F)(F)F)nc5)nc4)nc(c32)N1C [117 (W237), (S)-5-isopropyl-4-methyl-2-(((6-((6-(trifluoromethyl)pyridin-3-yl)oxo)pyridin-3-yl)methyl)amino)-4,5,9,10-tetrahydro-6H,8H-pyrido[3,2,1-de]pteridin-6-one] | 3.1 | 3.4 | > 10000 | 27 | 8.2 | 4 | > 10000 | – | – | – | – | – | – | – | – | – | –
(S)-4,5-dimethyl-2-(((6-((6-(trifluoromethyl)pyridin-3-yl)oxy)pyridin-3-yl)methyl)amino)-4,5,9,10-tetrahydro-6H,8H-pyrido[3,2,1-de]pteridin-6-one [Example 11] | – | – | – | – | – | 61 | – | 32 | 1.59 | 98.86 | 98.42 | 0.33 | 0.023 | > 10000 | 55 | 37 | > 10000

Reference: patent US12622917B2, “High-activity Wnt pathway inhibitor compound” (ADLAI NORTYE BIOPHARMA CO., LTD., priority 2020, dated 2026)
